Laboratory results published in the supplement of paper PMC10307832.

Key:
Assay in all cases: relative viability (nuclei count vs DMSO), 5 days (fraction); higher = more cells survive
[1] = compound: CC1=C(N=C(N=C1N)[C@H](CC(=O)N)NC[C@@H](C(=O)N)N)C(=O)N[C@@H]([C@H](C2=CN=CN2)OC3C(C(C(C(O3)CO)O)O)OC4C(C(C(C(O4)CO)O)OC(=O)N)O)C(=O)N[C@H](C)[C@H]([C@H](C)C(=O)N[C@@H]([C@@H](C)O)C(=O)NCCC5=NC(=CS5)C6=NC(=CS6)C(=O)NCCC[S+](C)C)O [Bleomycin] + Nc1nc2[nH]cc(CCc3ccc(C(=O)N[C@@H](CCC(=O)O)C(=O)O)cc3)c2c(=O)[nH]1 [Pemetrexed] (partner 0.2 µM); details: main component drawn
In short: (§1)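 Cells from lung cancer lines were seeded into 1536-well plates and, one day later, dosed by pin tool. Treatments were either a single drug or a fixed dose of an anchor drug with five library-drug doses (not always all listed) in √10 steps. After 5 days, nuclei were stained in a one-step fixation (final 0.05% Triton X-100, 1% formaldehyde, 1 ug/ml Hoechst) and counted on 4× images, and relative viability is the treated-to-vehicle nuclei ratio, as the median of duplicate plates.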

[2] = compound: COc1cc([C@@H]2c3cc4c(cc3[C@@H](O[C@@H]3O[C@@H]5CO[C@@H](C)O[C@H]5[C@H](O)[C@H]3O)[C@H]3COC(=O)[C@H]23)OCO4)cc(OC)c1O [Etoposide] + COc1cccc2cc(-c3nc([C@H]4CC[C@H](C(=O)O)CC4)n4ncnc(N)c34)[nH]c12 [OSI-027] (partner 0.5 µM)
In short: as §1

[3] = compound: CC1=C(N=C(N=C1N)[C@H](CC(=O)N)NC[C@@H](C(=O)N)N)C(=O)N[C@@H]([C@H](C2=CN=CN2)OC3C(C(C(C(O3)CO)O)O)OC4C(C(C(C(O4)CO)O)OC(=O)N)O)C(=O)N[C@H](C)[C@H]([C@H](C)C(=O)N[C@@H]([C@@H](C)O)C(=O)NCCC5=NC(=CS5)C6=NC(=CS6)C(=O)NCCC[S+](C)C)O [Bleomycin] + C[C@@H](Oc1cc(-c2cnn(C3CCNCC3)c2)cnc1N)c1c(Cl)ccc(F)c1Cl [Crizotinib] (partner 1 µM); details: main component drawn
In short: as §1

[4] = compound: CC1=C(N=C(N=C1N)[C@H](CC(=O)N)NC[C@@H](C(=O)N)N)C(=O)N[C@@H]([C@H](C2=CN=CN2)OC3C(C(C(C(O3)CO)O)O)OC4C(C(C(C(O4)CO)O)OC(=O)N)O)C(=O)N[C@H](C)[C@H]([C@H](C)C(=O)N[C@@H]([C@@H](C)O)C(=O)NCCC5=NC(=CS5)C6=NC(=CS6)C(=O)NCCC[S+](C)C)O [Bleomycin] + CCNC(=O)c1noc(-c2cc(C(C)C)c(O)cc2O)c1-c1ccc(CN2CCOCC2)cc1 [Luminespib] (partner 0.01 µM); details: main component drawn
In short: as §1

Cell Line | relative viability ([1]; first compound 0.01 µM) | relative viability ([1]; first compound 0.03162 µM) | relative viability ([1]; first compound 0.1 µM) | relative viability ([1]; first compound 0.3162 µM) | relative viability ([1]; first compound 1 µM) | relative viability ([2]; first compound 0.01 µM) | relative viability ([2]; first compound 0.03162 µM) | relative viability ([2]; first compound 0.1 µM) | relative viability ([2]; first compound 0.3162 µM) | relative viability ([2]; first compound 1 µM) | relative viability ([3]; first compound 0.01 µM) | relative viability ([3]; first compound 0.03162 µM) | relative viability ([3]; first compound 0.1 µM) | relative viability ([3]; first compound 0.3162 µM) | relative viability ([3]; first compound 1 µM) | relative viability ([4]; first compound 0.01 µM) | relative viability ([4]; first compound 0.03162 µM) | relative viability ([4]; first compound 0.1 µM) | relative viability ([4]; first compound 0.3162 µM) | relative viability ([4]; first compound 1 µM)
NCI-H1944 | 0.36 | 0.398 | 0.313 | 0.216 | 0.157 | 0.417 | 0.52 | 0.344 | 0.294 | 0.205 | 0.544 | 0.565 | 0.432 | 0.237 | 0.186 | 0.363 | 0.318 | 0.269 | 0.176 | 0.148
NCI-H2009 | 0.889 | 1.03 | 1.04 | 0.736 | 0.503 | 0.572 | 0.659 | 0.454 | 0.539 | 0.369 | 0.976 | 1.07 | 0.991 | 0.603 | 0.459 | 0.962 | 1.04 | 0.961 | 0.704 | 0.618
201T | 0.332 | 0.283 | 0.303 | 0.281 | 0.271 | 0.6 | 0.693 | 0.641 | 0.566 | 0.283 | 0.997 | 0.947 | 0.902 | 0.843 | 0.784 | 1.06 | 0.984 | 0.936 | 0.667 | 0.656
NCI-H2347 | 0.401 | 0.427 | 0.435 | 0.383 | 0.423 | 0.365 | 0.338 | 0.325 | 0.358 | 0.32 | 0.707 | 0.677 | 0.744 | 0.362 | 0.515 | 0.275 | 0.381 | 0.431 | 0.235 | 0.385
LOU-NH91 | 0.423 | 0.38 | 0.368 | 0.315 | 0.271 | 0.723 | 0.794 | 0.493 | 0.71 | 0.612 | 0.593 | 0.537 | 0.531 | 0.39 | 0.331 | 0.307 | 0.315 | 0.307 | 0.282 | 0.298
NCI-H2085 | 0.878 | 0.954 | 0.811 | 0.347 | 0.447 | 0.542 | 0.705 | 0.533 | 0.676 | 0.373 | 0.608 | 0.723 | 0.671 | 0.372 | 0.404 | 0.408 | 0.436 | 0.369 | 0.314 | 0.279
COR-L23 | 0.191 | 0.203 | 0.193 | 0.153 | 0.146 | 0.76 | 0.741 | 0.436 | 0.532 | 0.25 | 0.444 | 0.317 | 0.226 | 0.0998 | 0.099 | 0.501 | 0.352 | 0.258 | 0.122 | 0.122
BEN | 0.809 | 0.757 | 0.723 | 0.616 | 0.679 | 0.266 | 0.306 | – | 0.297 | 0.318 | 0.769 | 0.829 | 0.94 | 0.671 | 0.742 | 0.327 | 0.329 | 0.342 | 0.332 | 0.2
ChaGo-K-1 | 0.267 | 0.251 | 0.245 | 0.261 | 0.24 | 0.487 | 0.689 | 0.466 | 0.285 | 0.174 | – | 0.999 | 0.754 | 0.385 | 0.333 | 0.505 | 0.476 | 0.502 | 0.293 | 0.205
LK-2 | 0.243 | 0.252 | 0.204 | 0.146 | 0.133 | 0.248 | 0.214 | 0.185 | 0.194 | 0.158 | 0.237 | 0.216 | 0.213 | 0.229 | 0.273 | 0.172 | 0.15 | 0.185 | 0.161 | 0.169
NCI-H441 | 0.248 | 0.251 | 0.267 | 0.217 | 0.244 | 0.625 | 0.638 | 0.416 | 0.267 | 0.224 | – | 0.534 | 0.469 | 0.363 | 0.398 | 0.31 | 0.331 | 0.251 | 0.223 | 0.216
NCI-H596 | 0.474 | 0.46 | 0.465 | 0.305 | 0.332 | 0.695 | 0.831 | 0.467 | 0.56 | 0.546 | 0.896 | 0.661 | 0.558 | 0.409 | 0.475 | 0.755 | 0.617 | 0.552 | 0.335 | 0.377
NCI-H1666 | 0.72 | 0.659 | 0.804 | 0.578 | 0.673 | 0.853 | 0.812 | 0.678 | 0.528 | 0.408 | 0.717 | 0.57 | 0.469 | 0.339 | 0.325 | 0.733 | 0.657 | 0.583 | 0.395 | 0.436
NCI-H1993 | 0.649 | 0.584 | 0.496 | 0.469 | 0.514 | 0.565 | 0.452 | 0.53 | 0.508 | 0.522 | 0.629 | 0.712 | 0.693 | 0.678 | 0.527 | 0.738 | 0.497 | 0.716 | 0.57 | 0.41
NCI-H1975 | 0.267 | 0.252 | 0.219 | 0.175 | 0.166 | 0.733 | 0.975 | 0.594 | 0.748 | 0.27 | 0.774 | 0.693 | 0.662 | 0.319 | 0.241 | 0.29 | 0.168 | 0.177 | 0.164 | 0.178
HCC-44 | 0.625 | 0.666 | 0.586 | 0.526 | 0.401 | 0.625 | 0.524 | 0.52 | 0.505 | 0.294 | 0.484 | 0.256 | 0.223 | 0.152 | 0.138 | 0.39 | 0.277 | 0.261 | 0.187 | 0.239
